Data reported in publication PMC7170861, “The TIPE Molecular Pilot That Directs Lymphocyte Migration in Health and Inflammation” (Scientific Reports, 2020).

What was measured:
Assay in all cases: SPR, lipid vesicles on L1 chip, steady-state fit
Conditions in all cases: 10% (mole/mole) lipid in DOPC vesicles; HBS pH 7.4; 25 °C
[1] = target: T1, TNFAIP8 (Mus musculus, UniProt Q921Z5); format: binding
T1 construct: isoform 1; pET-SUMO, N-terminal 6His-SUMO tag cleaved off by SUMO protease; E. coli BL21(DE3); untagged native protein
T1 sequence (Q921Z5 1-198): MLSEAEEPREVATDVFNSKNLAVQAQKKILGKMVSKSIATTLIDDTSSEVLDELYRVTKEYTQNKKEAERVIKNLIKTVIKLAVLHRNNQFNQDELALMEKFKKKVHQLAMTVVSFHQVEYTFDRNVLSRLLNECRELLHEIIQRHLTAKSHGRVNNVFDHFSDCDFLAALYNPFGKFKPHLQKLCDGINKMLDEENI

[2] = target: T2, GRP1-PH
T2 construct: gene CYTH3; N-terminal 6His-SUMO tag cleaved off; E. coli BL21(DE3)
Text: SPR, lipid vesicles on L1 chip, steady-state fit on GRP1-PH | Purified PLCδ-PH and GRP1-PH domains were used as positive controls

[3] = target: T3, PLCδ-PH
T3 construct: gene PLCD1; N-terminal 6His-SUMO tag cleaved off; E. coli BL21(DE3)
Text: SPR, lipid vesicles on L1 chip, steady-state fit on PLCδ-PH | Purified PLCδ-PH and GRP1-PH domains were used as positive controls

For PtdIns(3,4,5)P3, the Kd [1] was 4060 nM and the Kd [2] was 980 ± 690 nM.

PtdIns(4,5)P2 gave a Kd [1] of 3160 nM and a Kd [3] of 2100 ± 1550 nM.
